# Test results published in patent US11371061B2, “Compositions and methods for improving viral vector efficiency” (GENETHON, priority 2015, dated 2022).
# Where no end group is shown, it is not given here.
# Key:
# HCT116 cells = assay type: cell-based, human
substance,measurement,setting,value
"YGRKKRRQRRR (Synthetic Tat (47-57)) [the Tat transduction domain, reference compound]",capacity to promote lentiviral transduction,HCT116 cells,neither Tat nor Bec peptides are capable to promote lentiviral transduction
YGRKKRRQRRR GG INCFTATFEIWVEGPLGV (YGRKKRRQRRRGGINCFTATFEIWVEGPLGV; Synthetic TAT+ GG + Beclin2) [Tat-Bec2WT],effect on lentiviral transduction at 100 nM,HCT116 cells,three-folds
same,lentiviral transduction at 100 nM,HCT116 cells,30%
same,optimal dose to promote lentiviral transduction,HCT116 cells,500 nM
YGRKKRRQRRR TNVFNATFEIWHDGEFGTINNFRLGRLPSV (YGRKKRRQRRRTNVFNATFEIWHDGEFGTINNFRLGRLPSV; Synthetic modified Tat-Beclin-1 + beclin-1 285-296) [Tat-Bec(267-296)dGG],increase of the level of viral transduction,HCT116 cells,nearly five folds
KKALLHAALAHLLALAHHLLALLKKA-NH2 [Vectofusin-1],aggregation of viral particles (pull-down),VSV-G-LV particles,"aggregation of viral particles, like it is the case for Vectofusin-1"
YGRKKRRQRRR GG FEIWHDGEFGTINNFRLGRLPSVPV (YGRKKRRQRRRGGFEIWHDGEFGTINNFRLGRLPSVPV; Synthetic TB1 274-298) [Tat-Bec(274-298)],capacity to promote lentiviral transduction at 2.5 μM,HCT116 cells,"most of the derivatives are a lot more efficient than TB1, except for Tat-Bec(274-298)"
YGRKKRRQRRR GG TNVFNATFEIWHDGEFGTINNFRLGRLPSV (YGRKKRRQRRRGGTNVFNATFEIWHDGEFGTINNFRLGRLPSV; Synthetic TB1 267-296) [Tat-Bec(267-296)],dose capable to promote optimal lentiviral transduction,HCT116 cells,≥ 1 µM
"TNVFNATFEIWHDGEFGT (Synthetic modified beclin-1 267-284) [the 267-284 modified beclin1 domain, reference compound]",capacity to promote lentiviral transduction,HCT116 cells,neither Tat nor Bec peptides are capable to promote lentiviral transduction
YGRKKRRQRRR GG TNVFNATFHIWHSGQFGT (YGRKKRRQRRRGGTNVFNATFHIWHSGQFGT; Synthetic TB WT) [Tat-BecWT],capacity to promote lentiviral transduction at 2.5 μM,HCT116 cells,capable to promote lentiviral transduction as efficiently as TB1
same,capacity to promote lentiviral transduction at 5 μM,HCT116 cells,no longer active
same,effect on lentiviral transduction at 100 nM,HCT116 cells,no effect
same,optimal dose to promote lentiviral transduction,HCT116 cells,1000 nM
YGRKKRRQRRR GG TNVFNATFHIWHSGQFGTINNFRLGRLPSV (YGRKKRRQRRRGGTNVFNATFHIWHSGQFGTINNFRLGRLPSV; Synthetic TB WT 267-296) [Tat-Bec(267-296)WT],capacity to promote lentiviral transduction at 2.5 μM,HCT116 cells,promoting the lentiviral transduction but less efficiently than the Tat-Bec(267-296) peptide
YGRKKRRQRRR GG VENQMRYAQTQLDKLKKTNVFNATFEIWHDGEF (YGRKKRRQRRRGGVENQMRYAQTQLDKLKKTNVFNATFEIWHDGEF; Synthetic TB1 250-282) [Tat-Bec(250-282)],capacity to promote lentiviral transduction at 2.5 μM,HCT116 cells,most performant peptide at a low dose
KLALKLALKALKAALKA G TNVFNATFEIWHDGEFGT (KLALKLALKALKAALKAGTNVFNATFEIWHDGEFGT; Synthetic MAP-B1) [MAP-Beclin1],capacity to promote lentiviral transduction,HCT116 cells,as efficient as TB1
